Patent US10800792B2, “Inhibitors of Bruton's tyrosine kinase and method of their use” (JANSSEN PHARMACEUTICA NV, priority 2015, dated 2020)

Molecular target: unphosphorylated-BTK kinase domain (UP-BTK), GST-tagged human BTK (389-659aa) (Homo sapiens (Human), UniProt Q06187)
Experiment: BTK kinase Lanthascreen binding assay
Conditions: unphosphorylated-BTK kinase domain, 60 minutes incubation, 50 nM Tracer 236; pIC50 = negative log of the IC50 in molar
Procedure, shortened: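 Compound binding to the unphosphorylated kinase domain was monitored by displacement of a fluorescently labelled tracer in a Lanthascreen format. Potency is given as pIC50, the negative log of the molar IC50.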

Chain of unphosphorylated-BTK kinase domain (UP-BTK), GST-tagged human BTK (389-659aa) (Q06187 389-659): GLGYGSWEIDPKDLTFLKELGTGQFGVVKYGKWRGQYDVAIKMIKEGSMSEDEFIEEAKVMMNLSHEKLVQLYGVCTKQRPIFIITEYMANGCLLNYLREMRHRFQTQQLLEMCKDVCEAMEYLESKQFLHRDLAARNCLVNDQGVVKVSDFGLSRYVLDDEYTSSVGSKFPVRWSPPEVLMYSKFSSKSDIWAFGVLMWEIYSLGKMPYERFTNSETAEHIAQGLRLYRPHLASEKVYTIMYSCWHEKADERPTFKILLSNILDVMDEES

BTK_I_binding pIC50 | Compound
5.2 | CN(C)c1ccc(N2C(=O)Nc3c(C(=O)N[C@@H]4CCCNC4)sc4nccc2c34)cc1 [Example 949, (R)-5-(4-(Dimethylamino)phenyl)-4-oxo-N-(piperidin-3-yl)-4,5-dihydro-3H-1-thia-3,5,8-triazaacenaphthylene-2-carboxamide]
5.1 | Cc1cccc(N2C(=O)Nc3c(C(=O)N[C@@H]4CCCNC4)sc4nccc2c34)c1 [Example 950, (R)-4-Oxo-N-(piperidin-3-yl)-5-(m-tolyl)-4,5-dihydro-3H-1-thia-3,5,8-triazaacenaphthylene-2-carboxamide]
5.1 | O=C(N[C@@H]1CCCNC1)c1sc2nccc3c2c1NC(=O)N3c1ccc(Cl)cc1 [Example 951, (R)-5-(4-Chlorophenyl)-4-oxo-N-(piperidin-3-yl)-4,5-dihydro-3H-1-thia-3,5,8-triazaacenaphthylene-2-carboxamide]
5.1 | Cc1ccc(N2C(=O)Nc3c(C(=O)N[C@@H]4CCCNC4)sc4nccc2c34)cc1 [Example 952, (R)-4-Oxo-N-(piperidin-3-yl)-5-(p-tolyl)-4,5-dihydro-3H-1-thia-3,5,8-triazaacenaphthylene-2-carboxamide]
5.1 | O=C(N[C@@H]1CCCNC1)c1sc2nccc3c2c1NC(=O)N3c1ccc(F)cc1 [Example 953, (R)-5-(4-Fluorophenyl)-4-oxo-N-(piperidin-3-yl)-4,5-dihydro-3H-1-thia-3,5,8-triazaacenaphthylene-2-carboxamide]
5.0 | CC(C)(C)c1ccc(N2C(=O)Nc3c(C(=O)N[C@@H]4CCCNC4)sc4nccc2c34)cc1 [Example 954, (R)-5-(4-(tert-Butyl)phenyl)-4-oxo-N-(piperidin-3-yl)-4,5-dihydro-3H-1-thia-3,5,8-triazaacenaphthylene-2-carboxamide]
<5 | Nc1ccc(N2C(=O)Nc3c(C(=O)N[C@@H]4CCCNC4)sc4nccc2c34)cc1 [Example 956, (R)-5-(4-Aminophenyl)-4-oxo-N-(piperidin-3-yl)-4,5-dihydro-3H-1-thia-3,5,8-triazaacenaphthylene-2-carboxamide]

The remaining lines, values behind:

Compound | BTK_I_binding pIC50
C=CC(=O)N1CCC[C@@H](NC(=O)c2sc3nccc4c3c2NC(=O)N4c2ccc(N)cc2)C1 [Example 948, (R)—N-(1-Acryloylpiperidin-3-yl)-5-(4-aminophenyl)-4-oxo-4,5-dihydro-3H-1-thia-3,5,8-triazaacenaphthylene-2-carboxamide] | 5.2
Cc1cc(N2C(=O)Nc3c(C(=O)N[C@@H]4CCCNC4)sc4nccc2c34)ccc1OC(C)C [Example 955, (R)-5-(4-Isopropoxy-3-methylphenyl)-4-oxo-N-(piperidin-3-yl)-4,5-dihydro-3H-1-thia-3,5,8-triazaacenaphthylene-2-carboxamide] | <5
Cc1c(Oc2ccccc2)cccc1N1C(=O)Nc2c(C(=O)N[C@H]3CCCN(C(=O)/C(C#N)=C/C4CC4)C3)sc3nccc1c23 [Example 957, (S,E)-N-(1-(2-Cyano-3-cyclopropylacryloyl)piperidin-3-yl)-5-(2-methyl-3-phenoxyphenyl)-4-oxo-4,5-dihydro-3H-1-thia-3,5,8-triazaacenaphthylene-2-carboxamide] | <5
C=CC(=O)N1CC[C@@H](NC(=O)c2sc3nccc4c3c2NC(=O)N4c2ccc(Oc3cccnn3)nc2C)C1 [Example 974, (R)—N-(1-Acryloylpyrrolidin-3-yl)-5-(2-methyl-6-(pyridazin-3-yloxy)pyridin-3-yl)-4-oxo-4,5-dihydro-3H-1-thia-3,5,8-triazaacenaphthylene-2-carboxamide] | 5.6
C=CC(=O)N1CCC[C@@H](NC(=O)c2sc3nccc4c3c2NC(=O)N4c2ccc(Oc3cccnn3)nc2C)C1 [Example 975, (R)—N-(1-Acryloylpiperidin-3-yl)-5-(2-methyl-6-(pyridazin-3-yloxy)pyridin-3-yl)-4-oxo-4,5-dihydro-3H-1-thia-3,5,8-triazaacenaphthylene-2-carboxamide] | 5.0
